Measured values published in US10100018B2, “Amide derivatives as lysophosphatidic acid receptor antagonists” (Takeda Pharmaceutical Company Limited, priority 2013, dated 2018).
Structures can show the parent of a compound that is named as a salt. Where two headings read alike, the source gives them in different places.

Columns and labels:
[1] = tested on: bleomycin-induced scleroderma; assay: In vivo bleomycin induced scleroderma model; set-up: species or system C57BL/6 mice; details: for skin collagen content compared to the vehicle-treated group: skin samples Day 28
Method: In Vivo Bleomycin Induced Scleroderma Model
Adult male C57BL/6 mice, aged 8-10 weeks, were assigned to groups and allowed to acclimatise for a week. On Day −1, the back skin of the animals was shaved. From Day 0, animals were administered with 100 μl of a 1 mg/ml solution of bleomycin sulphate in phosphate buffered saline (PBS) by intradermal injection in the shaved skin. Injections were repeated in a one square centimeter area every other day for four weeks. A group of ten animals (Control group) was injected with an identical volume of PBS. Animals were weighed at the beginning of the experiment on Day 0 and then twice weekly throughout the study. At the end of the experiment, on Day 28, animals were culled and samples of back skin were taken for further analysis. All groups were n=10; the vehicle was distilled water and the administration volume was 10 ml/kg for oral gavage (p.o.); administration volume was 25 μl for topical application.
Bodyweights were graphed along with the standard error of the mean (SEM); Skin samples (two punch biopsies per animal, 4 mm in diameter each) samples were hydrolyzed and hydroxyproline content of the samples was determined from analysis in a semi-automated process using a continuous flow analyzer. Autoanalyser readings were calibrated against hydroxyproline standards and collagen content calculated.

[2] = tested on: FPP-induced hyperalgesia; assay: In vivo farnesyl pyrophosphate-induced inflammatory (hyperalgesia) model, Randall-Selitto; details: Rattus norvegicus, adult male rats, read-out: In vivo efficacy (minimum effective dose (MED)
Method: In Vivo Farnesyl Pyrophosphate-Induced Inflammatory Model
The FPP-induced hyperalgesia model is a pharmacodynamic rat model which involves inducing pain by injecting FPP, an agonist of LPA5 receptor, into the plantar surface of the hindpaw.
Withdrawal responses were reassessed at 30 and 90 minutes after injection of FPP in the ipsilateral paw.

[3] = biological target: LPA5 receptor (Homo sapiens (Human), UniProt Q9H1C0); details: reported, Williams et al. (2009); cited from earlier work
Sequence of LPA5 receptor (Q9H1C0 whole entry): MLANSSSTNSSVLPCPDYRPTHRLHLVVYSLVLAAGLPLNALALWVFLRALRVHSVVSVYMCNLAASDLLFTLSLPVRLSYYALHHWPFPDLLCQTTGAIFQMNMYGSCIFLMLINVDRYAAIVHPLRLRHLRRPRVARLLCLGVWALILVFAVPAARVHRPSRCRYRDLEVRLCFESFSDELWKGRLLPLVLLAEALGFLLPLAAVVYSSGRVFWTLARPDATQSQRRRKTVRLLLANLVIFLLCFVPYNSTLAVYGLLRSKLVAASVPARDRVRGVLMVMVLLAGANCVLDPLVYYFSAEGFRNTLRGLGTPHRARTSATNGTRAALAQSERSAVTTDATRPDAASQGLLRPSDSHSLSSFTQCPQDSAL

Row | SMILES | minimal effective dose ([2]; route po) [mg/kg] | other results
1 | C[C@H]1C[C@H]2[C@@H]3CCC4=CC(=O)C=C[C@]4(C)[C@@]3(F)[C@@H](O)C[C@]2(C)[C@@]1(O)C(=O)CO [Betamethasone, reference compound] |  | skin collagen content compared to the vehicle-treated group ([1]; administered from Day 0): non-significant reduction
2 | O=C(O)c1ccc(CN(CC(F)(F)F)C(=O)c2ccc(Oc3ccccc3F)cc2)cc1 [Example 3, 4-((4-(2-Fluorophenoxy)-N-(2,2,2-trifluoroethyl)benzamido)-methyl)benzoic acid] | ≤ 10 | 
3 | CC(C)CN(Cc1ccc(C(=O)O)cc1)C(=O)c1ccc(Oc2ccccc2F)cc1 [Example 4, 4-((4-(2-Fluorophenoxy)-N-isobutylbenzamido)methyl)benzoic acid] | ≤ 10 | minimal effective dose ([2]; route ip): 1 mg/kg
4 | O=C(O)c1ccc(CN(CC2CC2)C(=O)c2ccc(Oc3ccccc3F)cc2)cc1 [Example 5, 4-((N-(Cyclopropylmethyl)-4-(2-fluorophenoxy)benzamido)-methyl)benzoic acid] | ≤ 10 | minimal effective dose ([2]; route ip): 0.3 mg/kg; bodyweight loss compared to the vehicle-treated group ([1]; 30 mg/kg p.o. BID, treated groups): did not differ; skin collagen content compared to the vehicle-treated group ([1]; administered from Day 0): significant reduction; skin collagen content compared to the vehicle-treated group ([1]; administered from Day 14 to Day 28, 30 mg/kg p.o. BID): significant reduction
5 | CC(C)CCN(Cc1ccc(C(=O)O)cc1)C(=O)c1ccc(Oc2ccccc2F)cc1 [Example 8, 4-((4-(2-Fluorophenoxy)-N-isopentylbenzamido)methyl)benzoic acid] | 100 | 
6 | O=C(O)c1ccc(CN(Cc2ccccc2)C(=O)c2ccc(Oc3ccccc3F)cc2)cc1 [Example 11, 4-((N-Benzyl-4-(2-fluorophenoxy)benzamido)methyl)benzoic acid] | ≤ 10 | 
7 | Cc1ccccc1Oc1ccc(C(=O)N(Cc2ccccc2)Cc2ccc(C(=O)O)cc2)cc1 [Example 24, 4-((N-Benzyl-4-(o-tolyloxy)benzamido)methyl)benzoic acid] | 30 | 
8 | COc1ccccc1Oc1ccc(C(=O)N(Cc2ccc(C(=O)O)cc2)CC(F)F)cc1 [Example 29, 4-((N-(2,2-Difluoroethyl)-4-(2-methoxyphenoxy)benzamido)-methyl)benzoic acid] | 3 | 
9 | COc1ccccc1Oc1ccc(C(=O)N(Cc2ccc(C(=O)O)cc2)CC2CC2)cc1 [Example 31, 4-((N-(Cyclopropylmethyl)-4-(2-methoxyphenoxy)benzamido)-methyl)benzoic acid] | 1 | 
10 | Cc1cccc(F)c1Oc1ccc(C(=O)N(Cc2ccc(C(=O)O)cc2)CC2CC2)cc1 [Example 40, 4-((N-(Cyclopropylmethyl)-4-(2-fluoro-6-methylphenoxy)-benzamido)methyl)benzoic acid] | 60 | 
11 | CC(C)=CCC/C(C)=C/CC/C(C)=C/COP(=O)(O)OP(=O)(O)O [Farnesyl pyrophosphate] |  | selectivity over other LPA receptors [3]: 3 fold
12 | Cc1ccc(NC(=O)c2ccc(CN3CCN(C)CC3)cc2)cc1Nc1nccc(-c2cccnc2)n1 [Imatinib, Imatinib mesylate, reference compound] |  | skin collagen content compared to the vehicle-treated group ([1]; administered from Day 0): non-significant reduction
